# From ChEMBL document CHEMBL1127259, “Synthesis of RPR 100893, prototype of a new series of potent and selective non peptide NK1 antagonists : the triarylperhydroisoindolols” (Bioorg Med Chem Lett, 1994)
# Species on record: Cavia porcellus
# Assay: Tested for antagonism of the contractile effect on guinea pig ileum preparations
# Type: functional
# Settings: read-out: pA2 (converted)
compound,measurement,value
COc1ccccc1[C@H](C)C(=O)N1C[C@@H]2[C@H](C1)C(c1ccccc1)(c1ccccc1)CC[C@@]2(O)c1ccccc1OC [DAPITANT],Kb,8.91 nM
